What all share (format): in vivo
For assay [1], the system named is Yellow Fever Mosquito (Aedes aegypti, AEDSAE). The conditions noted are these: for YFM rating: Table ABC / ABC-DP rating. An outline of the steps: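 Mortality after 3 days at room temperature is the read-out, scored well by well and converted to a rating. Test molecules came from 4000 ppm stocks in DMSO, further diluted in 90:10 water/acetone, and were exposed to roughly 1-day-old larvae suspended in liver-powder water.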

Assay [2] relates to Cabbage Looper (Trichoplusia ni, TRIPNI). Briefly: Bioassays on Cabbage Looper (CL), 128-well diet tray assay. The conditions noted are these: Trichoplusia ni. An outline of the steps: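 Percent mortality, averaged across eight replicate wells, after second-instar larvae (1–5 per well) fed for five to seven days on diet dosed at 50 μg/cm^2. Compound was applied in acetone-water 90:10 and dried; trays kept vented at 25° C under 14:10 photoperiod.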

The subject of assay [3] is Beet Armyworm (Spodoptera exigua, LAPHEG). Briefly: Bioassays on Beet Armyworm (BAW), 128-well diet tray assay. The conditions noted are these: Spodoptera exigua. The procedure, abridged:
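Diet-overlay assay: 50 μg/cm^2 compound applied in 90:10 acetone-water to artificial diet, allowed to dry, then infested with 1–5 L2 larvae/well; 8 wells/compound; covered, vented; 25° C., 14:10 L:D, 5–7 d; % mortality per well, averaged.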

The mark [4] stands for this setting: Table ABC: Biological Results, species YFM.
Where [5] appears, read: Table ABC: Biological Results, species CL, read-out: CL.
Setting [6] is: Table ABC: Biological Results, species BAW, read-out: BAW.
The mark [7] stands for this setting: Yellow Fever Mosquito, rating class.
Setting [8] is: Cabbage Looper, rating class, read-out: CL.
Setting [9] is: Beet Armyworm, rating class, read-out: BAW.
Where [10] appears, read: Cabbage Looper, Table ABC / ABC-DP rating, read-out: CL rating.
The mark [11] stands for this setting: Beet Armyworm, Table ABC / ABC-DP rating, read-out: BAW rating.

The text below walks through data of patent publication US20250228239A1, “MOLECULES HAVING PESTICIDAL UTILITY, AND INTERMEDIATES, COMPOSITIONS, AND PROCESSES, RELATED THERETO” (priority 2024, published 2025).

Where two headings read alike, the source gives them in different places.

On to `Nc1c(F)ccc(NC(=O)c2cc(NC(=O)[C@H]3[C@H](c4ccc(I)cc4)C3(Cl)Cl)ccc2Cl)c1F` (relative stereo) [F1140, trans-N-(3-Amino-2,4-difluorophenyl)-2-chloro-5-(2,2-dichloro-3-(4-iodophenyl)cyclopropane-1-carboxamido)benzamide], for which the YFM result in assay [1] (setting [4]) is “A (80–100)”. Moreover, the pest or weed control at 50 µg/cm2 in assay [2] (setting [5]) and in assay [3] (setting [6]) was 50 to 100% throughout.
Take `O=C(Nc1ccc(F)c(NC(=O)C2CC(F)(F)C2(F)F)c1F)c1cc(NC(=O)[C@H]2[C@H](c3ccc(F)c(C(F)(F)F)c3)C2(Cl)Cl)ccc1Cl` (stereo partly drawn) [F1481, 2-Chloro-5-((1R,3R)-2,2-dichloro-3-(4-fluoro-3-(trifluoromethyl)phenyl)cyclopropane-1-carboxamido)-N-(2,4-difluoro-3-(2,2,3,3-tetrafluorocyclobutane-1-carboxamido)phenyl)benzamide]: the YFM entry in assay [1] (setting [7]) is given as “A (80–100)”. Also, the pest or weed control at 50 µg/cm2 in assay [2] (setting [8]) and in assay [3] (setting [9]) was 50 to 100% each time.
With `O=C(Nc1ccc(F)c(NC(=O)C(F)(F)F)c1)c1cc(NC(=O)[C@H]2[C@H](c3cc(Cl)cc(Cl)c3)C2(Cl)Cl)ccc1Cl` [F1813, 2-Chloro-5-((1R,3R)-2,2-dichloro-3-(3,5-dichlorophenyl)cyclopropane-1-carboxamido)-N-(4-fluoro-3-(2,2,2-trifluoroacetamido)phenyl)benzamide], the YFM rating result in assay [1] (Yellow Fever Mosquito) is listed as “A (80–100)”. Also, the pest or weed control at 50 µg/cm2 in assay [2] (setting [10]) and in assay [3] (setting [11]) was 50 to 100% throughout.
`CC(=O)Nc1cc(NC(=O)c2cc(NC(=O)[C@H]3[C@H](c4ccc(F)c(C(F)(F)F)c4)C3(Cl)Cl)ccc2Cl)c(F)c(F)c1F` [F1743, N-(5-Acetamido-2,3,4-trifluorophenyl)-2-chloro-5-((1R,3R)-2,2-dichloro-3-(4-fluoro-3-(trifluoromethyl)phenyl)cyclopropane-1-carboxamido)benzamide]: in assay [1] (setting [7]), the YFM result was “A (80–100)”. For the same compound, the pest or weed control at 50 µg/cm2 in assay [2] (setting [8]) and in assay [3] (setting [9]) was 50 to 100% throughout.
Take `O=C(Nc1ccc(F)cc1)c1c(F)ccc(NC(=O)[C@H]2[C@H](c3ccc(F)c(Cl)c3)C2(Cl)Cl)c1F` (relative stereo) [F1100, trans-3-(2,2-Dichloro-3-(3-chloro-4-fluorophenyl)cyclopropane-1-carboxamido)-2,6-difluoro-N-(4-fluorophenyl)benzamide]: the YFM entry in assay [1] (setting [4]) is listed as “A (80–100)”. The pest or weed control at 50 µg/cm2 in assay [2] (setting [5]) and in assay [3] (setting [6]) was 50 to 100% each time.
`O=C(NCC(F)(F)F)c1cc(NC(=O)[C@H]2[C@H](c3cc(F)c(Cl)c(Cl)c3)C2(Cl)Cl)ccc1Cl` (relative stereo) [F2006, trans-2-Chloro-5-(2,2-dichloro-3-(3,4-dichloro-5-fluorophenyl)cyclopropane-1-carboxamido)-N-(2,2,2-trifluoroethyl)benzamide]: in assay [1] (Yellow Fever Mosquito), the YFM rating result is given as “A (80–100)”. Further, the pest or weed control at 50 µg/cm2 in assay [2] (setting [10]) and in assay [3] (setting [11]) was 50 to 100% each time.
`O=C(Nc1ccc(F)cc1F)c1cc(NC(=O)[C@H]2[C@H](c3cc(Cl)cc(Cl)c3)C2(F)F)ccc1Cl` (relative stereo) [F1058, trans-2-Chloro-5-(3-(3,5-dichlorophenyl)-2,2-difluorocyclopropane-1-carboxamido)-N-(2,4-difluorophenyl)benzamide]: the YFM result in assay [1] (setting [4]) is on record as “A (80–100)”. Besides, the pest or weed control at 50 µg/cm2 in assay [2] (setting [5]) and in assay [3] (setting [6]) was 50 to 100% throughout.
For the compound `C=CCC(=O)Nc1c(F)ccc(NC(=O)c2cc(NC(=O)[C@H]3[C@H](c4ccc(F)c(Cl)c4)C3(Cl)Cl)ccc2Cl)c1F` [F1876, N-(3-(But-3-enamido)-2,4-difluorophenyl)-2-chloro-5-((1R,3R)-2,2-dichloro-3-(3-chloro-4-fluorophenyl)cyclopropane-1-carboxamido)benzamide], the YFM rating result in assay [1] (Yellow Fever Mosquito) was “A (80–100)”. Besides, the pest or weed control at 50 µg/cm2 in assay [2] (setting [10]) and in assay [3] (setting [11]) was 50 to 100% each time.
Turning to `Nc1c(F)ccc(NC(=O)c2cc(NC(=O)[C@H]3[C@H](c4cccc(S(F)(F)(F)(F)F)c4)C3(Cl)Cl)ccc2Cl)c1F` (relative stereo) [F1143, trans-N-(3-Amino-2,4-difluorophenyl)-2-chloro-5-(2,2-dichloro-3-(3-(pentafluoro-λ^6-sulfanyl)phenyl)cyclopropane-1-carboxamido)benzamide], the YFM result in assay [1] (setting [4]) is “A (80–100)”. The pest or weed control at 50 µg/cm2 in assay [2] (setting [5]) and in assay [3] (setting [6]) was 50 to 100% in each case.
With `O=C(Nc1ccccc1)c1c(Cl)ccc(NC(=O)[C@H]2[C@H](c3ccc(F)c(Cl)c3)C2(Cl)Cl)c1Cl` (relative stereo) [F1104, trans-2,6-Dichloro-3-(2,2-dichloro-3-(3-chloro-4-fluorophenyl)cyclopropane-1-carboxamido)-N-phenylbenzamide], in assay [1] (setting [4]), the YFM result is listed as “A (80–100)”. In addition, the pest or weed control at 50 µg/cm2 in assay [2] (setting [5]) and in assay [3] (setting [6]) was 50 to 100% each time.
Consider `Nc1c(F)ccc(NC(=O)c2cc(NC(=O)[C@H]3[C@H](c4cc(Cl)c(F)c(Cl)c4)C3(Cl)Cl)ccc2Cl)c1F` (relative stereo) [F1181, trans-N-(3-Amino-2,4-difluorophenyl)-2-chloro-5-(2,2-dichloro-3-(3,5-dichloro-4-fluorophenyl)cyclopropane-1-carboxamido)benzamide], for which, in assay [1] (setting [4]), the YFM result is “A (80–100)”. Further, the pest or weed control at 50 µg/cm2 in assay [2] (setting [5]) and in assay [3] (setting [6]) was 50 to 100% throughout.
Consider `CC(C)(C)OC(=O)N(C(=O)OC(C)(C)C)c1c(F)ccc(NC(=O)c2cc(NC(=O)[C@H]3[C@H](c4ccc(F)c(Br)c4)C3(Cl)Cl)ccc2Cl)c1F` [F1776, tert-Butyl N-[3-[[5-[[(1R,3R)-3-(3-bromo-4-fluoro-phenyl)-2,2-dichloro-cyclopropanecarbonyl]amino]-2-chloro-benzoyl]amino]-2,6-difluoro-phenyl]-N-tert-butoxycarbonyl-carbamate], for which the YFM rating entry in assay [1] (Yellow Fever Mosquito) is “A (80–100)”. Further, the pest or weed control at 50 µg/cm2 in assay [2] (setting [10]) and in assay [3] (setting [11]) was 50 to 100% each time.
`O=C(Nc1ccc(F)c(NC(=O)C(F)(F)Cl)c1F)c1cc(NC(=O)[C@H]2[C@H](c3cc(Cl)c(Cl)c(Cl)c3)C2(Cl)Cl)ccc1Cl` [F1686, 2-Chloro-N-(3-(2-chloro-2,2-difluoroacetamido)-2,4-difluorophenyl)-5-((1R,3R)-2,2-dichloro-3-(3,4,5-trichlorophenyl)cyclopropane-1-carboxamido)benzamide]: the YFM result in assay [1] (setting [7]) was “A (80–100)”. The pest or weed control at 50 µg/cm2 in assay [2] (setting [8]) and in assay [3] (setting [9]) was 50 to 100% throughout.
For `CCC(F)(F)C(=O)Nc1c(F)ccc(NC(=O)c2cc(NC(=O)[C@H]3[C@H](c4ccc(F)c(C(F)(F)F)c4)C3(Cl)Cl)ccc2Cl)c1F` [F1357, 2-Chloro-5-((1R,3R)-2,2-dichloro-3-(4-fluoro-3-(trifluoromethyl)phenyl)cyclopropane-1-carboxamido)-N-(3-(2,2-difluorobutanamido)-2,4-difluorophenyl)benzamide], in assay [1] (setting [4]), the YFM entry was “A (80–100)”. Moreover, the pest or weed control at 50 µg/cm2 in assay [2] (setting [5]) and in assay [3] (setting [6]) was 50 to 100% each time.
For the compound `Nc1ccc(NC(=O)c2cc(NC(=O)[C@H]3[C@H](c4ccc(F)c(Cl)c4)C3(Cl)Cl)ccc2Cl)cc1Cl` (relative stereo) [F1370, trans-N-(4-Amino-3-chlorophenyl)-2-chloro-5-(2,2-dichloro-3-(3-chloro-4-fluorophenyl)cyclopropane-1-carboxamido)benzamide], the YFM result in assay [1] (setting [4]) is “A (80–100)”. Further, the pest or weed control at 50 µg/cm2 in assay [2] (setting [5]) and in assay [3] (setting [6]) was 50 to 100% each time.
As to `N#Cc1cc(NC(=O)c2cc(NC(=O)[C@H]3[C@H](c4ccc(F)c(Cl)c4)C3(Cl)Cl)ccc2Cl)ccc1N` (relative stereo) [F1387, trans-N-(4-Amino-3-cyanophenyl)-2-chloro-5-(2,2-dichloro-3-(3-chloro-4-fluorophenyl)cyclopropane-1-carboxamido)benzamide], the YFM entry in assay [1] (setting [4]) is recorded as “A (80–100)”. In addition, the pest or weed control at 50 µg/cm2 in assay [2] (setting [5]) and in assay [3] (setting [6]) was 50 to 100% each time.
In the case of `Nc1c(F)ccc(NC(=O)c2cc(NC(=O)[C@H]3[C@H](c4cc(F)c(Cl)c(Cl)c4)C3(Cl)Cl)ccc2Cl)c1F` (relative stereo) [F1046, trans-N-(3-Amino-2,4-difluorophenyl)-2-chloro-5-(2,2-dichloro-3-(3,4-dichloro-5-fluorophenyl)cyclopropane-1-carboxamido)benzamide], in assay [1] (setting [4]), the YFM result is given as “A (80–100)”. In addition, the pest or weed control at 50 µg/cm2 in assay [2] (setting [5]) and in assay [3] (setting [6]) was 50 to 100% each time.
On to `O=C(CC1CC1)Nc1c(F)ccc(NC(=O)c2cc(NC(=O)[C@H]3[C@H](c4ccc(Cl)c(Cl)c4)C3(Cl)Cl)ccc2Cl)c1F` [F1417, 2-Chloro-N-(3-(2-cyclopropylacetamido)-2,4-difluorophenyl)-5-((1R,3R)-2,2-dichloro-3-(3,4-dichlorophenyl)cyclopropane-1-carboxamido)benzamide], for which the YFM entry in assay [1] (setting [7]) is recorded as “A (80–100)”. The pest or weed control at 50 µg/cm2 in assay [2] (setting [8]) and in assay [3] (setting [9]) was 50 to 100% each time.
